# Source: patent US11286226B2, “Polycyclic carbogenic molecules and uses thereof as anti-cancer agents” (Northwestern University, priority 2017, dated 2022)
# Read-outs that look alike come from different tables or passages of the source.
# Assays:
# [1] = tested on: HT29 (colon); experiment: Cell viability at 1 mM (CellTiter-GLO), HT29; format: cell-based; details: Homo sapiens, read-out: Percent Cell Viability of Treated Cell Lines at 1.0 mM, HT29
# Description: (§1) Cell lines PC-3, HT29, Hela, and MDA-MB-231 were cultured in RPMI1640 with 10% FBS media. Cell line MDA-MB-231-LM24 was cultured in DMEM with 400 ug/mL geneticin.
# (§2) PC-3, HT29, Hela, and MDA-MB-231, and MDA-MB-231-LM24 cells were plated in […] at a density of 20,000 cells per well (based on NCI recommendation for adherent cells) in 90 μL volume of 5% FBS RPMI1640 complete media with 50 μg/mL gentamicin and incubated at 37° C. overnight. Each compound was diluted in RPMI1640 complete media supplemented with 5% FBS and 50 μg/mL of gentamycin, and 10 μL of this solution was added to each well to give a final concentration of 1 mM (1% overall DMSO, N=4 wells).
# (§3) Cells treated with Doxorubicin with 1% overall DMSO were used as a positive control, and cells media containing 1% DMSO were used as a negative control.
# (§4) 48 hours following treatment, cell proliferation was evaluated using the CellTiter-GLO Luminescent Cell Viability Assay (Promega, Madison, Wis.). Plates were allowed to equilibrate to room temperature for 20 minutes, and 100 μL of CellTiter-GLO reagent was added to all wells. The plates were shaken for 2 minutes and incubated at room temperature for 10 minutes. Luminescence was measured using a Syngergy H1-M microplate reader (BioTek Instruments, Inc.).
# [2] = tested on: MDA-MB-231-LM24 (metastatic breast); experiment: Cell viability at 1 mM (CellTiter-GLO), MDA-MB-231-LM24; format: cell-based; details: Homo sapiens, read-out: Percent Cell Viability of Treated Cell Lines at 1.0 mM, MDA-MB-231-LM24
# Description: as §1, §2, §3, §4
# [3] = Cell viability at 1 mM (CellTiter-GLO), MCF10A; format: cell-based; details: human, MCF10A cells (normal breast); 1.0 mM in DMSO, 48 h, MCF10A; read-out: Percent Cell Viability of Treated Cell Lines at 1.0 mM, MCF10A
# Description: (§5) Normal breast cell line MCF10A was cultured in DMEM/F12 with 5% horse serum, 20 ng/mL EGF, […], 100 ng/mL cholera toxin, 10 μg/mL insulin, and 1% pen/strep.
# (§6) Normal breast cells (MCF10A) were plated in 96-well black plates at a density of 20,000 cells per well (based on the NCI recommendation for adherent cells) in 90 μL volume of DMEM/F12 with 2% horse serum, 0.5 μg/mL hydrocortisone, 100 ng/mL cholera toxin, 10 μg/mL insulin, and 1% pen/strep, and incubated at 37° C. overnight. The compounds were diluted in the media specified above, and 10 μL of this solution was added to each well to give a final concentration of 1 mM (1% overall DMSO, N=4 wells).
# as §3, §4
# [4] = tested on: MCF10A ("normal" breast); experiment: Cell viability at 1 mM (CellTiter-GLO), MCF10A; format: cell-based; details: non-tumorigenic breast epithelial cell line, 1.0 mM
# Description: as §5, §6, §3, §4
# [5] = tested on: MDA-MB-231 (breast); experiment: Cell viability at 1 mM (CellTiter-GLO), MDA-MB-231; format: cell-based; details: Homo sapiens, read-out: Percent Cell Viability of Treated Cell Lines at 1.0 mM, MDA-MB-231
# Description: as §1, §2, §3, §4
# [6] = tested on: PC-3 (prostate); experiment: Cell viability at 1 mM (CellTiter-GLO), PC-3; format: cell-based; details: Homo sapiens, 48 h, read-out: Percent Cell Viability of Treated Cell Lines at 1.0 mM, PC-3
# Description: as §1, §2, §3, §4
# [7] = tested on: HeLa (cervix); experiment: Cell viability at 1 mM (CellTiter-GLO), HeLa; format: cell-based; details: Homo sapiens, 48 h, read-out: Percent Cell Viability of Treated Cell Lines at 1.0 mM, HeLa
# Description: as §1, §2, §3, §4
# [8] = tested on: MDA-MB-231 (breast) cancer cell line; experiment: Cell viability assay at three concentrations (FIG. 7), MDA-MB-231; format: cell-based, human; details: three different concentrations
# [9] = tested on: PC3 (prostate) cancer cell line; experiment: Cell viability assay at three concentrations (FIG. 7), PC3; format: cell-based, human; details: three different concentrations
# [10] = tested on: MDA-MB-231-LM24; experiment: IC50 experiment (CellTiter-GLO), MDA-MB-231-LM24; format: cell-based, human
# Description: as §1
# (§7) The compound was diluted in RPMI1640 complete media supplemented with 5% FBS and 50 μg/mL of gentamycin, and 100 μL of this solution was added to each well to give a final concentration of 0.00001-1 mM (N=4 wells). DMSO was held constant at 1%, for all dose points.
# (§8) 48 hours following treatment, cell proliferation was evaluated using the CellTiter-GLO Luminescent Cell Viability Assay (Promega, Madison, Wis.). Plates were allowed to equilibrate to room temperature for 20 minutes, and 100 μL of CellTiter-GLO reagent was added to all wells. The plates were shaken for 2 minutes and incubated at room temperature for 10 minutes. Luminescence was measured using a Syngergy H1-M microplate reader (BioTek Instruments, Inc.). The IC50 value was determined by Prism GraphPad Software.
# [11] = tested on: MCF10A; experiment: IC50 experiment (CellTiter-GLO), MCF10A; format: cell-based; details: Homo sapiens, MCF-10A; 48 h, 1% DMSO; read-out: IC50 against MCF10A
# Description: as §5, §7, §8
# [12] = HT-29, 1.0 mM in DMSO, 48 h, HT29
# [13] = 1.0 mM in DMSO, 48 h, MDA-MB-231-LM24
# [14] = 1.0 mM in DMSO, 48 h, MDA-MB-231
Compound,"viability at 1000 µM [1, 12]","viability at 1000 µM [2, 13]","viability at 48 h, 1 mM [3]","viability at 1000 µM [5, 14]","viability at 1000 µM ([6]; 1.0 mM in DMSO, PC-3)",viability at 1000 µM ([7]; 1.0 mM in DMSO),also measured
O=C1C=CC[C@H]2C=C[C@@H]3CC=CC(=O)[C@H]3[C@H]12 [Compound 13],2%,2%,1%,26%,0%,4%,activity against MCF10A cell line [4]: highly active
CC1=CC[C@H]2C=C[C@@H]3CC=C(C)C(=O)[C@H]3[C@@H]2C1=O [Compound 14],1%,67%,,69%,72%,46%,
CC1=CC(=O)[C@@H]2[C@H]3C(=O)C=C(C)C[C@@H]3C=C[C@H]2C1 [Compound 15],66%,54%,,11%,63%,40%,
CC1=CC[C@H]2C=C(C)[C@@H]3CC=C(C)C(=O)[C@H]3[C@@H]2C1=O [Compound 18],,,,,,,"activity in cell viability assay, MDA-MB-231 [8]: promising activity; activity in cell viability assay, PC3 [9]: promising activity"
CC1=CC[C@H]2C(C)=C[C@@H]3CC=CC(=O)[C@@]3(C)[C@@H]2C1=O [Compound 19],1%,0%,,0%,1%,0%,
CC1=CC[C@@H]2C(C)=C[C@@]3(C)CC=CC(=O)[C@@H]3[C@H]2C1=O [Compound 20],31%,10%,,43%,11%,2%,
CC1=CC[C@@H]2C(C)=C[C@@H]3[C@H](C(=O)C=CC3(C)C)[C@H]2C1=O [Compound 21],,,4%,,,,"viability at 1000 µM ([1]; HT-29, 48 h): 0%; viability at 1000 µM ([2]; MDA-MB-231-LM24, 48 h): 0%; activity against MCF10A cell line [4]: highly active; viability at 1000 µM ([5]; MDA-MB-231, 48 h): 0%; viability at 1000 µM [6]: 0%; viability at 1000 µM [7]: 0%"
CC1=CC[C@H]2C(C)=CCC3(CCC=CC3=O)[C@@H]2C1=O (some centres unmarked) [Compound 24],0%,0%,4%,1%,0%,3%,"activity against MCF10A cell line [4]: highly active; activity in cell viability assay, MDA-MB-231 [8]: promising activity; activity in cell viability assay, PC3 [9]: promising activity"
O=C1C=CC[C@H]2CC=C[C@@H]3CC=CC(=O)[C@H]3[C@H]12 [Compound 25],0%,1%,,6%,0%,21%,
C[C@]12CC(=O)C=C[C@@H]1CC=CC2=O [Compound 28],0%,16%,,2%,1%,0%,
C[C@@]12C=CC(=O)C[C@H]1C(=O)C=CC2 [Compound 29],8%,26%,,62%,2%,22%,
O=C1C=CC[C@@H]2[C@@H]1[C@@H]1C(=O)C=CC[C@H]1C1O[C@H]12 (some centres unmarked) [Compound 31],0%,3%,5%,26%,0%,2%,activity against MCF10A cell line [4]: highly active
O=C1C2O[C@@H]2C[C@H]2C=C[C@@H]3CC4O[C@H]4C(=O)[C@H]3[C@H]12 (some centres unmarked) [Compound 32],1%,0%,70%,25%,1%,0%,"IC50 ([10]; Homo sapiens, MDA-MB-231-LM24, 48 h, 1% DMSO, read-out: IC50 against MDA-MB-231-LM24): 200 µM; selectivity between cancer versus ""normal"" cell lines ([10]; MCF10A IC50 versus MDA-MB-231-LM24 IC50): 15 times; IC50 [11]: 3100 µM"
O=C1CCC[C@H]2CC[C@@H]3CCCC(=O)[C@H]3[C@H]12 [Compound 33],51%,60%,,75%,77%,13%,
CC1=C[C@@H]2[C@H](C(=O)CCC2(C)C)[C@H]2C(=O)[C@@H](C)CC[C@H]12 [Compound 36],64%,55%,,53%,77%,41%,
